# Read-outs that look alike come from different tables or passages of the source. Where a SMILES comes first, the peptide text is derived from it. [ ]: non-standard residue; d: D form. The star is where a group is joined. Ac5c = NC1(C(=O)O)CCCC1; Cbz = O=C(OCc1ccccc1)*
# Tests used:
# SARS-CoV-2 nsp14 MTase [1] = biological target: T1, SARS-CoV-2 nsp14 MTase (Severe acute respiratory syndrome coronavirus 2, UniProt P0DTD1); assay: biochemical; format: biochemical; conditions: for IC50: nsp14 MTase activity, high-throughput screening follow-up
# SARS-CoV-2 = format: cell-based; conditions: Calu-3 cells, lung epithelial SARS-CoV-2 infection model
# nsp14 = nsp14 (Severe acute respiratory syndrome coronavirus 2, UniProt P0DTD1); assay: surface plasmon resonance (SPR) binding to immobilized full-length biotinylated nsp14; parameters: species or system SARS-CoV-2
# Protocol: For Surface Plasmon Resonance (SPR), the full-length biotinylated nsp14 was immobilized on the flow cell of a SA sensor chip in 1x HBS-EP buffer, achieving a response of 8000 RU. The assay was performed using the same buffer but with 2% DMSO added. Single-cycle kinetics were employed with a contact time of 60 seconds and a dissociation time of 120 seconds, at a flow rate of 75 µL/min. NSC620333 was tested at a concentration of 10 µM as the highest concentration, and a dilution factor of 0.25 was used to yield five different concentrations.
# SARS-CoV-2 nsp14 MTase [2] = biological target: T1, SARS-CoV-2 nsp14 MTase; conditions: inhibition of nsp14 methyltransferase activity; cited from earlier work
# [3] = compound 100µM, replicate experiment 1
# [4] = compound 100µM, replicate experiment 2
SMILES,nsp14 Inhibition % (100µM) Exp 1 (SARS-CoV-2 nsp14 MTase [1]; [3]) [%],nsp14 Inhibition % (100µM) Exp 2 (SARS-CoV-2 nsp14 MTase [1]; [4]) [%],also measured
O=C(O)c1ccc(C(=O)c2ccc(C(=O)c3ccc(C(=O)O)cc3)cc2)cc1 [NSC2269],64,60,IC50 (SARS-CoV-2 nsp14 MTase [1]; read-out: IC50): 27 µM
O=C(CN1CCOCC1)C(O)C(O)C(O)CO (stereo not shown) [NSC4348],73,61,IC50 (SARS-CoV-2 nsp14 MTase [1]; read-out: IC50): 34 µM
O=C(O)c1nc(N=Nc2ccc(S(=O)(=O)O)cc2)[nH]c1C(=O)O [NSC4624],65,47,
O=C(N/N=C/[C@H](O)[C@H]1OC(=O)[C@@H](O)[C@H]1O)c1ccncc1 [NSC27605],26,10,
OCC(O)C(O)C(O)C(O)c1nc2ccccc2s1 (stereo not shown) [NSC34443],86,81,IC50 (SARS-CoV-2 nsp14 MTase [1]; read-out: IC50): 57 µM
O=C(NNCNNC(=O)c1ccncc1)c1ccncc1 [NSC39302],7,−2,
Nc1nc2nn(-c3ccc(C(=O)NC(CCC(=O)O)C(=O)O)cc3)nc2c(=O)[nH]1 (stereo not shown) [NSC44037],15,9,
OCCNc1ncnc2c1ncn2[C@@H]1O[C@H](CO)[C@@H](O)[C@H]1O [NSC54251],4,−4,
O=C1C2C3C=CC(O3)C2C(=O)N1/N=C/C(O)C(O)C(O)C(O)CO (stereo not shown) [NSC60360],4,−4,
O=c1cc(-c2ccc(O)cc2)oc2c(O)c(O)c(O)c(O)c12 [NSC76988],,,"anti-SARS-CoV-2 activity (SARS-CoV-2): demonstrated anti-SARS-CoV-2 activity; IC50 (SARS-CoV-2 nsp14 MTase [1]; IC50 (µM)): 6 µM; inhibition at 100 µM (SARS-CoV-2 nsp14 MTase [1]; compound 100µM, replicate experiment 1, read-out: nsp14 Inhibition % (100µM) Exp 1): 100%; inhibition at 100 µM (SARS-CoV-2 nsp14 MTase [1]; compound 100µM, replicate experiment 2, read-out: nsp14 Inhibition % (100µM) Exp 2): 99%; direct binding to nsp14 (nsp14): no direct binding was detected"
O=C1C=C(O)C(=C/C=C/C=C/c2c(O)cc(O)cc2O)C(O)=C1 [NSC77131],99,99,IC50 (SARS-CoV-2 nsp14 MTase [1]; read-out: IC50): 9 µM
Nc1ncnc2c1ncn2[C@H]1C[C@H](O)[C@@H](COP(=O)(O)O)O1 [NSC77680],13,7,
O=C(O)CNC(=O)C1(NC(=O)CNC(=O)OCc2ccccc2)CCCC1 [NSC80136] (Cbz-Gly-[Ac5c]-Gly-OH),13,2,
O=C(CCCCn1ccc(=O)[nH]c1=O)Nc1ccc(C(=O)O)c(O)c1 [NSC92432],6,−1,
CN(CC(O)C(O)C(O)C(O)CO)CN1C(=O)C(=O)c2ccccc21 (stereo not shown) [NSC99790],46,36,
O=S(=O)(O)c1cc(Cl)cc(N=Nc2ccc(O)cc2O)c1O [NSC102798],77,74,
OC1COC(n2cnc3c(=S)nc[nH]c32)C(O)C1O (stereo not shown) [NSC107661],18,7,
Nc1ncnc2c1ncn2C1OC(CO)C(NC(=O)C(N)Cc2ccccc2)C1O (stereo not shown) [NSC114010],11,−3,
NC(CCC(=O)NC(CSCc1ccc(F)cc1)C(=O)NCC(=O)O)C(=O)O (stereo not shown) [NSC131119],8,0,
NC(CCCNc1nc(O)c(-c2ccccc2)c(=O)[nH]1)C(=O)O (stereo not shown) [NSC132916],−1,−3,

SMILES,nsp14 Inhibition % (100µM) Exp 1 (SARS-CoV-2 nsp14 MTase [1]; [3]) [%],nsp14 Inhibition % (100µM) Exp 2 (SARS-CoV-2 nsp14 MTase [1]; [4]) [%],also measured
O=C(O)/C=C\C(=O)NCC1CCC(CNC(=O)/C=C\C(=O)O)CC1 (stereo not shown) [NSC137050],6,−1,
NS(=O)(=O)c1ccc(NC2OCC(O)C(O)C2O)cc1 (stereo not shown) [NSC158437],5,1,
Nc1ncnc2c1ncn2C1OC(C(=O)NCC(=O)O)C(O)C1O (stereo not shown) [NSC163444],9,5,
O=C(O)c1cc(=O)n(CCCCCCn2c(=O)cc(C(=O)O)[nH]c2=O)c(=O)[nH]1 [NSC232469],7,−7,
O=P(O)(O)OC[C@H]1O[C@@H](n2cnc3c(NCc4ccccc4)ncnc32)[C@H](O)[C@@H]1O [NSC255523],59,33,
CC(C)=CCNc1ncnc2c1ncn2[C@@H]1O[C@H](COP(=O)(O)O)[C@@H](O)[C@H]1O [NSC268226],9,0,
Cn1c(=O)c2c(ncn2CCCNCC(O)c2ccc(O)c(CO)c2)n(C)c1=O (stereo not shown) [NSC293892],15,3,
CC(CCc1ccc2c(c1)OCO2)NCC(O)c1ccc(O)c(C(N)=O)c1 (stereo not shown) [NSC313453],,,inhibition at 100 µM (SARS-CoV-2 nsp14 MTase [1]; read-out: nsp14 Inhibition % (100µM) Exp 1): 3%; inhibition at 100 µM (SARS-CoV-2 nsp14 MTase [1]; read-out: nsp14 Inhibition % (100µM) Exp 2): -5%
O=C(O)CCC(=O)NCC1CCCC(CNC(=O)CCC(=O)O)C1 (stereo not shown) [NSC317609],7,1,
O=P(O)(O)OC1OC(n2cnc3c(NCc4ccc(F)cc4)ncnc32)C(O)C1O (stereo not shown) [NSC330685],4,2,
O=C(O)C(Cc1ccc(O)cc1)NC(c1ccccc1)P(=O)(O)O (stereo not shown) [NSC377438],8,−3,
NC(CSCCSCCSCC(N)C(=O)O)C(=O)O (stereo not shown) [NSC400718],89,88,IC50 (SARS-CoV-2 nsp14 MTase [1]; read-out: IC50): 38 µM
O=S(=O)(O)c1ccc(N=Nc2c(O)ccc3n[nH]nc23)cc1 [NSC400937],73,66,
O=c1ccn(C2OC(C(O)CO)C(O)C2O)c(=O)[nH]1 (stereo not shown) [NSC613624],4,−1,
COc1cc(N=Nc2ccccc2C(=O)O)cc(/C=N/NNC(N)=S)c1O [NSC630814],84,82,
O=C1NC(=O)C(C(=O)C(=O)Nc2cccc(C(F)(F)F)c2)C(=O)N1 [NSC646375],26,20,
NC(CCCC(N)P(=O)(O)c1ccccc1)P(=O)(O)c1ccccc1 (stereo not shown) [NSC655184],7,−11,
O=C(O)c1ccc(Nc2nc3ccccc3nc2C(=O)O)cc1 [NSC670682],50,54,
N#Cc1cn([C@@H]2O[C@H](CSCC[C@H](N)C(=O)O)C(O)[C@@H]2O)c2ncnc(N)c12 (stereo partly shown) [SS148],,,IC50 (SARS-CoV-2 nsp14 MTase [2]): 0.07 ± 0.006 µM
